Values quoted from earlier work, collected in patent publication US8158770B2, “Content dependent inhibitors of cytidine deaminases and uses thereof” (University of Rochester, priority 2004, dated 2012).

Columns and labels:
[1] = by comparison to 5-aza-dC and ara-C
[2] = by comparison to 5-aza-dC and ara-C; remark: listed apart in the source

In the case of O=c1ncccn1[C@@H]1O[C@H](CO)[C@@H](O)[C@H]1O [zebularine, 1-(beta-D-ribofuranosyl)-1,2-dihydropyrmidin-2-one], the cytotoxicity [1] is listed as “considerably less cytotoxic” and the “chemically stable in aqueous solution, up to pH” value [2] is listed as ≤ 12 pH.
